In paper PMC6400584, “Activation mechanism of ATP-sensitive K^+ channels explored with real-time nucleotide binding” (eLife, 2019):
Like-named read-outs stand apart in the source and are kept apart here.

Tests used:
SUR1-Y1353*/Kir6.2 = assay: Nucleotide wash-out (dissociation) time course; format: binding, Homo sapiens; settings: for τ of MgTNP-ADP dissociation in the presence of drug / τ of MgTNP-ATP dissociation in the presence of drug: 500 µM tolbutamide or 340 µM diazoxide; for t0.5 (time to 50% dissociation): no drug, mean ± SD of individual fits; for reduction of off-rate in the presence of Mg2+ (fold / factor): with vs without Mg2+
SUR1-T1397*/Kir6.2 [1] = assay: Current inhibition in inside-out patches in the absence of Mg2+; format: biochemical, Homo sapiens
Procedure: (§1) Currents were recorded from inside-out membrane patches excised from transfected HEK-293T cells. Pipettes were pulled to a resistance of 1–5 MΩ and filled with an extracellular solution containing (in mM) 140 KCl, 1.2 MgCl2, 2.6 CaCl2, and 10 HEPES, pH 7.4 or 140 KCl, 1 EGTA, 10 HEPES, pH 7.3. The intracellular (bath) solutions contained either (in mM) 107 KCl, 2 MgCl2, 1 CaCl2, 10 EGTA, and 10 HEPES, pH 7.2 for experiments showing nucleotide-dependent activation or 140 KCl, 1 EDTA, 1 EGTA, 10 HEPES pH 7.3 for experiments showing nucleotide-dependent inhibition. Nucleotides were added as indicated. Patches were perfused with an 8-channel µFlow perfusion system. Data were acquired at a holding potential of −60 mV using an Axopatch 200B amplifier and Digidata 1322A digitizer with pClamp 9.0 software (Molecular Devices). Currents were digitized at 10 kHz and low-pass filtered at 1 kHz. KATP channels run down in excised patches (reviewed by Proks et al.) ([Proks et al., 2016]). For inhibitory concentration-response relationships, rundown was corrected by alternating test nucleotide solutions with nucleotide-free (control) solutions and expressing the test currents as a fraction of the average of the control currents before and after the test solution. […]

[2] = molecular target: SUR1-Y1353*/Kir6.2 (NBS2 of SUR1) (Homo sapiens, UniProt Q09428, Y1353X); assay: FRET binding of TNP-nucleotides to ANAP-labeled KATP in unroofed membrane fragments
Procedure: (§2) Unroofed membranes were prepared using a modification of a protocol from the Heuser laboratory ([Heuser, 2000]; [Usukura et al., 2012]; [Zagotta et al., 2016]). Briefly, a coverslip containing adherent cells was removed from the cell culture medium and a small piece (0.5–1 cm) was broken off using jewelers forceps (#5) and washed in phosphate buffered saline (PBS, Thermo Fisher Scientific) diluted 1:3 in deionized water. Cells were exposed 3 × 10 s to a solution of 0.01% poly-L-lysine (Sigma) with intervening washes in diluted PBS to adhere them more firmly to the coverslips. The coverslip fragment was then placed in a 30 mm culture dish filled with 2–3 mL of 1/3X PBS and sonicated very briefly (~100 ms) using a probe sonicator (Vibra-cell; Newtown, CT), leaving behind adherent plasma membrane and sometimes additional cellular material. The unroofed fragments in our experiments were sometimes visible under bright-field illumination, a potential result of our modified ‘unroofing’ procedure. Morphologically, such cell fragments resemble the ‘partially unroofed’ cells identified by Usukura et al. ([Usukura et al., 2012]) Cells cultured on poly-D-lysine coated FluoroDishes were unroofed in diluted PBS with no additional poly-L-lysine treatment. This procedure yielded a higher percentage of completely unroofed plasma membranes (i.e. nearly invisible with brightfield illumination).
(§3) Unroofed membrane fragments were imaged directly on FluoroDishes (FD35-PDL-100, World Precision Instruments) or on broken coverslips placed in a FluoroDish (FD3510, World Precision instruments) using a Nikon TE2000-U microscope equipped with a 40x (S Fluor, 1.3 NA; Nikon, Kingston Upon Thames, UK) or 100x (Apo TIRF, 1.49 NA, Nikon) oil-immersion objective and low-fluorescence immersion oil (MOIL-30, Olympus; Southend-on-Sea, UK) or a 60x water immersion objective (Plan Apo VC, 1.20 NA, Nikon). ANAP was excited using a ThorLabs LED source (LED4D067) at 385 nm connected to the microscope using a liquid light guide in series with a 390/18 nm band-pass filter (MF390-18, ThorLabs; Newton, NJ) and MD416 dichroic (ThorLabs). For imaging, emitted light was filtered through a 479/40 nm band-pass filter (MF479-40, ThorLabs). GFP-tagged constructs were imaged using a similar setup with excitation at 490 nm, a 480/40 band-pass excitation filter (Chroma; Bellows Falls, VT), a DM505 dichroic mirror (Chroma), and 510 nm long-pass emission filter (Chroma). All images were acquired using a PIXIS 400B CCD camera (Princeton Instruments; Trenton, NJ). For spectroscopy, ANAP was excited as above, but emitted light was passed through a 400 nm long-pass filter (FEL0400, ThorLabs) and directed through the slit of an Isoplane 160 spectrometer (300 g/mm grating; Princeton Instruments) in series with the camera. The acquired images retained spatial information in the y-dimension, with the x-dimension replaced by wavelength (Figure 1—figure supplement 1a). Exposure times were typically 100 ms for brightfield images, 1–10 s for steady-state spectra and 1–5 s for time-course experiments.
(§4) To prevent accumulation of fluorescent nucleotides in the bath, FluoroDishes were perfused with either (in mM) 140 KCl, 20 NaCl, 10 MgCl2, 10 HEPES pH 7.2 with NaOH or 140 KCl, 20 NaCl, 1 EDTA, 10 HEPES pH 7.2 with NaOH using a peristaltic pump (Ismatec; Wertheim, Germany). Unroofed membranes were directly perfused with nucleotides using an 8-channel µFlow perfusion system (ALA Scientific Instruments; Farmingdale, NY). Solution change with the µFlow was rapid (τ = 0.73 s±0.02 s, n=5) as measured from single exponential fits to wash-out of 50 µM tetramethylrhodamine-5-maleimide (TMRM) after switching to a solution with no TMRM. TMRM was excited with a 565 nm LED with a D540/25X band-pass filter (Chroma) and DM565 dichroic mirror (Chroma). Emitted light was collected through a D605/55M band-pass filter (Chroma). […]

SUR1-T1397*/Kir6.2 [3] = molecular target: T1, SUR1-T1397*/Kir6.2 (Homo sapiens, UniProt Q09428, T1397X); assay: as above; settings: absence of Mg2+
T1 construct: confirmed that >95% of SUR1-T1397* was full length; expressed in transfected cells; host or cells: HEK-293T
Procedure: as §2, §3, §4

SUR1-Y1353*,K2A/Kir6.2 [4] = molecular target: T2, SUR1-Y1353*,K2A/Kir6.2 (Homo sapiens, UniProt Q09428, K1384A/Y1353X); assay: as above; settings: absence of Mg2+
T2 construct: the signals we measured (fluorescence) were derived solely from full-length (i.e. ANAP-labeled) channels; expressed in transfected cells; host or cells: HEK-293T
Procedure: as §2, §3, §4

SUR1/Kir6.2 = molecular target: T3, SUR1/Kir6.2 (Homo sapiens, UniProt Q09428+Q14654); set-up: method as in Proks et al., 2010; settings: 100 μM in Mg2+-free solutions; wild-type; ref Proks et al., 2010; cited from earlier work
T3 construct: expressed in transfected cells; host or cells: HEK-293T

SUR1-Y1353*,K2A/Kir6.2 [5] = molecular target: T2, SUR1-Y1353*,K2A/Kir6.2; assay: Nucleotide wash-out (dissociation) time course; format: binding; settings: absence of Mg2+
From the text: as §4, with “[…] Solution exchange” for “Emitted light”, “also monitored during experiments with TNP-nucleotides by examining the emission spectrum of” for “collected through”, “background region in each image.” for “D605/55M band-pass filter (Chroma).”
To measure the time course of nucleotide unbinding, the fluorescence at the TNP-nucleotide peak (usually around 560 nm) was plotted as a function of time after exchanging to a zero-nucleotide solution, as following the time course of the rise in ANAP fluorescence was complicated by photobleaching. After complete wash out of nucleotides, the fluorescence at 560 nm was non-zero, as the shoulder of the ANAP emission spectrum extends into the range of wavelengths at which TNP-nucleotides emit. […]

SUR1/Kir6.2-G334D = molecular target: T4, SUR1/Kir6.2-G334D (Homo sapiens, UniProt Q09428); assay: Current activation in inside-out patches; format: biochemical
T4 construct: expressed in transfected cells; host or cells: HEK-293T
Procedure: as §1

[6] = absence of Mg2+, fit to combined data
[7] = absence of Mg2+ (1 mM EDTA), mean ± SEM of fits to individual experiments
[8] = mean ± SEM of fits to individual experiments

| Compound | τ of MgTNP-ADP dissociation in the presence of drug (SUR1-Y1353*/Kir6.2; fit to combined data) | τ of MgTNP-ATP dissociation in the presence of drug (SUR1-Y1353*/Kir6.2; fit to combined data) | t0.5 (time to 50% dissociation) (SUR1-Y1353*/Kir6.2; absence of Mg2+) | reduction of off-rate in the presence of Mg2+ (fold / factor) (SUR1-Y1353*/Kir6.2) | Emax [2, 7] | h [2, 7] | Emax [2, 6] | h [2, 6] | EC50 (SUR1-T1397*/Kir6.2 [3]; fit to combined data) | Emax (SUR1-T1397*/Kir6.2 [3]; fit to combined data) | h (SUR1-T1397*/Kir6.2 [3]; fit to combined data) | EC50 (SUR1-T1397*/Kir6.2 [3]; [8]) | Emax (SUR1-T1397*/Kir6.2 [3]; [8]) | h (SUR1-T1397*/Kir6.2 [3]; [8]) | Emax (SUR1-Y1353*,K2A/Kir6.2 [4]; fit to combined data) | h (SUR1-Y1353*,K2A/Kir6.2 [4]; fit to combined data) | Emax (SUR1-Y1353*,K2A/Kir6.2 [4]; [8]) | h (SUR1-Y1353*,K2A/Kir6.2 [4]; [8]) | other results |
| --- | --- | --- | --- | --- | --- | --- | --- | --- | --- | --- | --- | --- | --- | --- | --- | --- | --- | --- | --- |
| CC1=NS(=O)(=O)c2cc(Cl)ccc2N1 [diazoxide] | 52.6 s | 60.5 s |  |  |  |  |  |  |  |  |  |  |  |  |  |  |  |  |  |
| Nc1ncnc2c1ncn2[C@@H]1O[C@H](COP(=O)(O)OP(=O)(O)OP(=O)(O)O)[C@@H](O)[C@H]1O [ATP] |  |  |  |  |  |  |  |  |  |  |  |  |  |  |  |  |  |  | IC50 (SUR1-T1397*/Kir6.2 [1]; Equation 4 fit to combined data): 49.2 µM; IC50 (SUR1-T1397*/Kir6.2 [1]; mean ± SEM of fits of Equation 4 to individual experiments): 53.9 ± 9.4 µM |
| Nc1ncnc2c1ncn2[C@@H]1O[C@H](COP(=O)(O)OP(=O)(O)OP(=O)(O)O)[C@H]2OC3(O[C@H]21)C([N+](=O)[O-])=CC(=[N+]([O-])[O-])C=C3[N+](=O)[O-] (stereo partly drawn) [TNP-ATP, trinitrophenyl-ATP] |  |  | 4.8 ± 1.5 s | 2.2 | 0.83 ± 0.03 | 0.88 ± 0.06 | 0.84 ± 0.04 | 0.8 ± 0.1 | 4.8 µM | 0.94 ± 0.02 | 0.8 ± 0.1 | 4.7 ± 0.8 µM | 0.94 ± 0.01 | 0.83 ± 0.09 | 0.87 ± 0.03 | 0.9 ± 0.2 | 0.90 ± 0.03 | 0.98 ± 0.13 | A1 of dissociation (bi-exponential amplitude) (SUR1-Y1353*/Kir6.2; [6]): 0.65 ± 0.06; A2 of dissociation (bi-exponential amplitude) (SUR1-Y1353*/Kir6.2; [6]): 0.35 ± 0.06; τ1 of dissociation (bi-exponential) (SUR1-Y1353*/Kir6.2; [6]): 4.5 s; τ2 of dissociation (bi-exponential) (SUR1-Y1353*/Kir6.2; [6]): 28.2 s; EC50 ([2]; EC50, absence of Mg2+ (1 mM EDTA), mean ± SEM of fits to individual experiments): 12.8 ± 5.6 µM; EC50 ([2]; EC50, absence of Mg2+, fit to combined data): 8.5 µM |
| Nc1ncnc2c1ncn2[C@@H]1O[C@H](COP(=O)(O)OP(=O)(O)O)[C@@H](O)[C@H]1O [ADP] |  |  |  |  |  |  |  |  |  |  |  |  |  |  |  |  |  |  | reduction in current (SUR1/Kir6.2): ~ 60% |
| trinitrophenyl-ADP [TNP-ADP] |  |  | 2.9 ± 0.5 s | ~ 5 | 0.95 ± 0.01 | 0.79 ± 0.04 | 0.95 ± 0.02 | 0.8 ± 0.1 | 5.6 µM | 0.98 ± 0.05 | 0.7 ± 0.1 | 6.3 ± 2.3 µM | 0.98 ± 0.02 | 0.84 ± 0.13 | 0.91 ± 0.02 | 0.9 ± 0.1 | 0.92 ± 0.02 | 0.88 ± 0.05 | τ of dissociation (single exponential) (SUR1-Y1353*,K2A/Kir6.2 [5]; fit to combined data): 5.4 s; t0.5 (time to 50% dissociation) (SUR1-Y1353*,K2A/Kir6.2 [5]; mean ± SD): 3.8 ± 1.0 s; τ of dissociation (single exponential) (SUR1-Y1353*/Kir6.2; [6]): 4.2 s; EC50 ([2]; absence of Mg2+ (1 mM EDTA), mean ± SEM of fits to individual experiments, read-out: EC50): 6.8 ± 1.3 µM; EC50 ([2]; absence of Mg2+, fit to combined data, read-out: EC50): 6.1 µM; effect of increasing concentration to 10 mM on amount of quenching ([2]; absence of Mg2+, n = 3, data not shown): did not significantly change; EC50 (SUR1-Y1353*,K2A/Kir6.2 [4]; fit to combined data): 4.4 µM; EC50 (SUR1-Y1353*,K2A/Kir6.2 [4]; [8]): 5 ± 1 µM |
| CCCCNC(=O)NS(=O)(=O)c1ccc(C)cc1 [tolbutamide] | 6.4 s | 6.3 s |  |  |  |  |  |  |  |  |  |  |  |  |  |  |  |  | effect on currents (SUR1/Kir6.2-G334D): inhibited |
